Like-named read-outs stand apart in the source and are kept apart here.
Assays:
[1] = Stability: solids placed openly in a stability test chamber at 25° C. and 65% RH, purity by HPLC; assay type: physicochemical; details: calcium salt
Text: NMNH is the reduced form of NMN, sensitive to air, easily oxidized, and unstable, making it unsuitable for long-term storage and market promotion. WO2023160405 (A1) reported the NMNH disodium salt compound and its crystalline and amorphous forms. […] Such stability fails to meet the shelf-life requirements for commercial products, hindering market promotion. The solid forms of NMNH calcium salt crystalline form A, crystalline form B, crystalline form C, crystalline form D, and crystalline form E were placed openly in a stability test chamber at 25° C. and 65% RH to evaluate their stability and hygroscopicity.

[2] = Hygroscopicity: solids placed openly at 25° C. and 65% RH, water content by KF; assay type: physicochemical
Protocol: The solid forms of NMNH calcium salt crystalline form A, crystalline form B, crystalline form C, crystalline form D, and crystalline form E were placed openly in a stability test chamber at 25° C. and 65% RH to evaluate their stability and hygroscopicity.

[3] = WO2023160405 (A1); cited from earlier work
[4] = cited from earlier work; for Appearance of the solid / Purity (HPLC, area %): 25° C., 65% RH, data of WO2023160405 (A1); for Purity: 25° C. and 65% RH / air, WO2023160405 (A1)

SMILES | Purity (HPLC, area %) ([1]; 0 day) [area %] | Purity (HPLC, area %) ([1]; 5 days) [area %] | Purity (HPLC, area %) ([1]; 60 days) [area %] | Water content of NMNH calcium salt crystalline form (KF) ([2]; 0 day) [%] | Water content of NMNH calcium salt crystalline form (KF) ([2]; 5 days) [%] | Water content of NMNH calcium salt crystalline form (KF) ([2]; 60 days) [%] | other results
NC(=O)C1=CN([C@@H]2O[C@H](COP(=O)(O)O)[C@@H](O)[C@H]2O)C=CC1.[Ca+2] [NMNH calcium salt Crystalline Form A, reduced β-nicotinamide mononucleotide calcium salt] | 99.83 | 99.82 | 99.82 | 9.2 | 9.2 | 9.0 | –
NC(=O)C1=CN([C@@H]2O[C@H](COP(=O)([O-])[O-])[C@@H](O)[C@H]2O)C=CC1.[Na+].[Na+] [NMNH disodium salt crystalline form B, NMNH disodium salt] | – | – | – | – | – | – | Behaviour of the crystalline form when stored in the air [3]: absorb water and transform into crystalline form A
NC(=O)C1=CN([C@@H]2O[C@H](COP(=O)([O-])[O-])[C@@H](O)[C@H]2O)C=CC1.[Na+].[Na+] [NMNH disodium salt Amorphous Form, NMNH disodium salt] | – | – | – | – | – | – | Appearance of the solid ([4]; 0 day, disodium salt): (powder); Purity (HPLC, area %) ([4]; 0 day, disodium salt): 99.30 area %; Appearance of the solid ([4]; 0 day, listed as amorphous solid of NMNH disodium salt, disodium salt): powder; Purity (HPLC, area %) ([4]; 1 day, disodium salt): 99.02 area %; Appearance of the solid ([4]; after 1 day, disodium salt): (oil); Appearance of the solid ([4]; after 1 day, listed as NMNH disodium salt amorphous powder, disodium salt): oil; Appearance of the solid ([4]; after 1 day, listed as amorphous solid of NMNH disodium salt, disodium salt): oil; Purity ([4]; after 1 day): 99.02%; Purity ([4]; initial value before exposure, listed as NMNH disodium salt amorphous powder, disodium salt): 99.30%; Purity ([4]; initial value before exposure, listed as amorphous solid of NMNH disodium salt, disodium salt): 99.30%
NC(=O)C1=CN([C@@H]2O[C@H](COP(=O)([O-])[O-])[C@@H](O)[C@H]2O)C=CC1.[Na+].[Na+] [NMNH disodium salt Crystalline Form A, NMNH disodium salt] | – | – | – | – | – | – | Purity (HPLC, area %) ([4]; 0 day, disodium salt): 99.33 area %; Purity (HPLC, area %) ([4]; 1 day, disodium salt): 99.27 area %; Purity (HPLC, area %) ([4]; 5 days): 99.01 area %; Purity ([4]; after 5 days): 99.01%; Purity ([4]; text, initial value before exposure, listed as NMNH disodium salt crystalline Form A, disodium salt): 99.33%; Purity ([4]; text, initial value before exposure, listed as NMNH disodium salt crystalline form A, disodium salt): 99.33%

Continued, in another order:

Purity (HPLC, area %) ([1]; 0 day) [area %] | Purity (HPLC, area %) ([1]; 5 days) [area %] | Purity (HPLC, area %) ([1]; 60 days) [area %] | Water content of NMNH calcium salt crystalline form (KF) ([2]; 0 day) [%] | Water content of NMNH calcium salt crystalline form (KF) ([2]; 5 days) [%] | Water content of NMNH calcium salt crystalline form (KF) ([2]; 60 days) [%] | SMILES | other results
99.75 | 99.75 | 99.75 | 13.3 | 13.2 | 12.9 | NC(=O)C1=CN([C@@H]2O[C@H](COP(=O)(O)O)[C@@H](O)[C@H]2O)C=CC1.[Ca+2] [NMNH calcium salt Crystalline Form B, reduced β-nicotinamide mononucleotide calcium salt] | –
99.60 | 99.60 | 99.59 | 20.3 | 20.3 | 20.0 | NC(=O)C1=CN([C@@H]2O[C@H](COP(=O)(O)O)[C@@H](O)[C@H]2O)C=CC1.[Ca+2] [NMNH calcium salt Crystalline Form E, reduced β-nicotinamide mononucleotide calcium salt] | –
99.64 | 99.64 | 99.64 | 18.4 | 18.4 | 18.3 | NC(=O)C1=CN([C@@H]2O[C@H](COP(=O)(O)O)[C@@H](O)[C@H]2O)C=CC1.[Ca+2] [NMNH calcium salt Crystalline Form D, reduced β-nicotinamide mononucleotide calcium salt] | –
99.78 | 99.78 | 99.79 | 9.5 | 9.5 | 9.3 | NC(=O)C1=CN([C@@H]2O[C@H](COP(=O)(O)O)[C@@H](O)[C@H]2O)C=CC1.[Ca+2] [NMNH calcium salt Crystalline Form C, reduced β-nicotinamide mononucleotide calcium salt] | –
